Measurements reported in patent US20160051556A1, “Method and Pharmaceutical Composition for use in the Treatment of Chronic Liver Diseases Associated with a Low Hepcidin Expression” (INSERM (INSTITUT NATIONAL DE LA SANTÉ ET DE LA RECHERCHE …, priority 2013, published 2016).

Tests used:
Format in all cases: in vivo, mouse
Hamp mRNA = assay: Liver Hamp mRNA by qRT-PCR in Bmp6-/- males treated with gefitinib; conditions: 7 w.o. Bmp6-/- males
Procedure: (§1) Bmp6 null mice (Bmp^6mlRob) obtained from E. Robertson and wild-type controls on a CD1 background were sacrificed at 7, 12, or 30 weeks of age. Liver, spleen, heart, pancreas and kidney samples were dissected for RNA isolation, flash frozen in liquid nitrogen and stored at −80° C. Hamp-deficient mice were kindly provided by S. Vaulont. They were derived on a C57BL/6 background in the lab of T. Ganz. Gonadectomies and sham operations were performed under anesthesia at 4 weeks of age. Testosterone (10 mg/kg; Sigma) was suspended in corn oil and a total volume of 60 μL per mouse was injected sc everyday for a week. To investigate the role of erythropoiesis in the down-regulation of hepcidin by testosterone, Bmp6−/− females were whole-body irradiated with a sublethal dose of 60Co (6 Gy) on day 1, administered daily doses of testosterone (1 μg/g) starting on day 2, and sacrificed on day 8. To investigate the effect of EGF signaling on testosterone-induced hepcidin down-regulation, the selective EGFR inhibitor Gefitinib (Iressa) was stirred into 1% Tween 80 and administered orally daily from days −1 to 7 to Bmp6−/− males (200 mg/kg; Euromedex). Mice were housed under controlled lighting and temperature conditions, fed a chow of normal iron content (250 mg iron/kg; SAFE, Augy, France) ad libidum, and were fasted for 14 h before they were killed. Experimental protocols were approved by the Midi-Pyrenees Animal Ethics Committee.
(§2) Total RNA from mouse liver was extracted using Trizol (Invitrogen). cDNA was synthesized using MMLV-RT (Promega). The sequences of the primers for target genes and the reference gene Hprt are listed in supplemental Table 1. Quantitative PCR reactions were prepared with LightCycler 480 DNA SYBR Green I Master reaction mix (Roche Diagnostics, Mannheim, Germany) and run in duplicate on a LightCycler 480 Instrument (Roche Diagnostics).
(§3) Data were first normalized to the invariant control Hprt and, for each sample and each target gene, −ΔCt=−[Ct target gene−Ct Hprt] was calculated. Because the numerical value of Ct is inversely related to the amount of amplicon in the reaction, the higher the −ΔCt value, the greater the amount of target amplicon. Values shown are means±SEM. Target gene expression in an individual is proportional to 2^−ΔCt. However, individual expression values are usually shown on a log scale and, because log 2 (2^−ΔCt)[…], −ΔCt data rather than 2^−ΔCt data are plotted on the y-axes. An increase of 1 on the y-axis thus corresponds to a 2-fold increase in target gene expression. ΔCt data are the observed values from experimental procedures and it is recommended that ΔCt data rather 2−ΔCt data be the subject of statistical analysis (41). […]

Hepcidin (Hamp) mRNA = assay: Liver hepcidin (Hamp) mRNA by qRT-PCR after testosterone administration to ovariectomized Bmp6-/- mice
C-terminal phospho-Smad2 = C-terminal phospho-Smad2 immunoblot of liver extracts, gonadectomized Bmp6-/- females treated with testosterone; conditions: administration of testosterone to Bmp6-/- females
Procedure: as §1, with “Mice were housed under controlled lighting and temperature conditions, fed a chow of normal iron content (250 mg iron/kg; SAFE, Augy, France) ad libidum, and were fasted for 14 h before they were killed. Experimental protocols were approved by the Midi-Pyrenees Animal Ethics Committee.” left out
(§4) Livers were homogeneized in a FastPrep®-24 Instrument (MP Biomedicals) for 15 sec at 4 m/s. […] Liver proteins were quantified using a protein assay kit (Bio-Rad). […]

Egfr mRNA = assay: Liver Egfr mRNA by qRT-PCR after testosterone administration to gonadectomized Bmp6-/- females
Procedure: as §1, §2, §3

C-terminal phospho-Smad5 = C-terminal phospho-Smad5 immunoblot of liver extracts, gonadectomized Bmp6-/- females treated with testosterone; conditions: administration of testosterone to Bmp6-/- females
Procedure: as §1, with “Mice were housed under controlled lighting and temperature conditions, fed a chow of normal iron content (250 mg iron/kg; SAFE, Augy, France) ad libidum, and were fasted for 14 h before they were killed. Experimental protocols were approved by the Midi-Pyrenees Animal Ethics Committee.” left out
as §4

[1] = gefitinib 200 mg/kg orally daily for 7 days
[2] = non-irradiated 7 w.o. ovariectomized Bmp6-/- mice, testosterone propionate 10 mg/kg sc daily for 7 days
[3] = whole-body irradiated ovariectomized Bmp6-/- mice, daily testosterone days 2 to 8
[4] = gonadectomized Bmp6-/- females, testosterone for a week

SMILES	Hamp mRNA -ΔΔCt (gefitinib vs vehicule) (Hamp mRNA; [1])	Hamp mRNA mean -ΔCt (Ct Hprt - Ct Hamp) (Hamp mRNA; [1])	Hamp expression on average higher than in mice treated with vehicule (Hamp mRNA; gefitinib 200 mg/kg orally daily for 7 days, liver mRNA) [fold]	Effect on Hamp mRNA levels (in words) (Hamp mRNA; gefitinib daily for 7 days)	Effect on hepcidin expression in irradiated mice (in words) (Hepcidin (Hamp) mRNA; irradiated ovariectomized Bmp6-/- females, testosterone propionate 10 mg/kg days 2 to 8)	Hamp mRNA -ΔΔCt (testosterone vs vehicule) (Hepcidin (Hamp) mRNA; [2])	Hamp mRNA mean -ΔCt (Ct Hprt - Ct Hamp) (Hepcidin (Hamp) mRNA; [2])	Hepcidin expression repressed on average (vs vehicule) (Hepcidin (Hamp) mRNA; non-irradiated 7 w.o. ovariectomized Bmp6-/- mice, testosterone propionate 10 mg/kg sc daily for 7 days, liver mRNA) [fold]	Hepcidin expression reduced on average (vs vehicule) (Hepcidin (Hamp) mRNA; whole-body irradiated (60Co, 6 Gy) ovariectomized Bmp6-/- mice, daily testosterone days 2 to 8) [fold]	Hamp mRNA -ΔΔCt (testosterone vs vehicule) (Hepcidin (Hamp) mRNA; [3])	Hamp mRNA mean -ΔCt (Ct Hprt - Ct Hamp) (Hepcidin (Hamp) mRNA; [3])	C-terminal Smad2 phosphorylation in liver (in words) (C-terminal phospho-Smad2)	Egfr mRNA -ΔΔCt (testosterone vs vehicule) (Egfr mRNA; [4])	Egfr mRNA mean -ΔCt (Ct Hprt - Ct Egfr) (Egfr mRNA; [4])	Egfr expression increased on average (vs vehicule) (Egfr mRNA; gonadectomized Bmp6-/- females, testosterone for a week, liver mRNA) [fold]	Effect on liver Egfr expression (in words) (Egfr mRNA; ovariectomized Bmp6-/- females treated with testosterone for a week)	C-terminal Smad phosphorylation (Smad5) in liver (in words) (C-terminal phospho-Smad5)
COc1cc2ncnc(Nc3ccc(F)c(Cl)c3)c2cc1OCCCN1CCOCC1 [gefitinib, 4-quinazolinamine, N-(3-chloro-4-fluorophenyl)-7-methoxy-6-[3-(4-morpholinyl)propoxy]-(9CI)]	2.76	4.02	6.8	significant induction of Hamp mRNA levels	–	–	–	–	–	–	–	–	–	–	–	–	–
CCC(=O)O[C@H]1CC[C@H]2[C@@H]3CCC4=CC(=O)CC[C@]4(C)[C@H]3CC[C@]12C [testosterone, testosterone propionate]	–	–	–	–	downregulation of hepcidin expression to levels similar to those observed in non irradiated control mice	−3.95	1.27	15.4	16.3	−4.03	0.81	increased	1.72	0.88	3.3	induced	reduced
